What was measured:
[1] = Cytotoxicity against human MAGI-CCR5 cells assessed as reduction in cell viability after 48 hrs by MTS assay; type: cell-based; details: read-out: TC50
[2] = system: Human immunodeficiency virus 1; experiment: Antiviral activity against HIV-1 NL4-3 harboring reverse transcriptase K103N mutant infected in human MAGI-CCR5 cells assessed as reduction in viral infection after 48 hrs by fluorescence based beta-galactosidase reporter gene assay; type: functional, cell-based; details: Human immunodeficiency virus 1, NL4-3, MAGI-CCR5, 48 h
[3] = system: Human immunodeficiency virus 1; type: functional, cell-based; details: Human immunodeficiency virus 1, NL4-3, MAGI-CCR5, 48 h
[4] = system: Human immunodeficiency virus 1; experiment: microbe, parasite or virus in culture; details: Human immunodeficiency virus 1, NL4-3, MAGI-CCR5, 48 h
Description: Antiviral activity against wild type HIV-1 NL4-3 infected in human MAGI-CCR5 cells assessed as reduction in viral infection after 48 hrs by fluorescence based beta-galactosidase reporter gene assay

[5] = system: Human immunodeficiency virus 1; experiment: microbe, parasite or virus in culture; details: Human immunodeficiency virus 1, NL4-3, MAGI-CCR5, 48 h; remark: listed apart in the source
Description: Antiviral activity against HIV-1 NL4-3 harboring reverse transcriptase E138A mutant infected in human MAGI-CCR5 cells assessed as reduction in viral infection after 48 hrs by fluorescence based beta-galactosidase reporter gene assay

[6] = system: Human immunodeficiency virus 1; experiment: Antiviral activity against HIV-1 Bal infected in human MAGI-CCR5 cells assessed as reduction in viral infection after 48 hrs by fluorescence based beta-galactosidase reporter gene assay; type: functional, cell-based; details: for IC50 / IC90: Human immunodeficiency virus 1, Bal, MAGI-CCR5, 48 h
[7] = Therapeutic index, ratio of TC50 for human MAGI-CCR5 cells to IC50 for HIV-1 Bal infected in MAGI-CCR5 cells
PBMC = experiment: Antiviral activity against HIV-1 Bal infected in human PBMC by MTS assay; type: functional, cell-based
[8] = Cytotoxicity against human PBMC assessed as reduction in cell viability by MTS assay; type: cell-based; details: read-out: TC50 (the source's name)
[9] = Therapeutic index, ratio of TC50 for human PBMC to IC50 for HIV-1 Bal infected in human PBMC
[10] = Metabolic stability in rat plasma assessed as compound remaining at 100 uM after 1 hr by LC/MS analysis; type: ADME, cell-free; details: read-out: Stability
[11] = Metabolic stability in rat liver microsomes assessed as compound remaining at 4 uM preincubated for 5 mins followed by NADPH addition measured after 60 mins by LC/MS analysis; type: ADME, microsome; details: read-out: Stability
[12] = Therapeutic index, ratio of TC50 for human MAGI-CCR5 cells to IC50 for HIV-1 NL4-3 infected in MAGI-CCR5 cells
[13] = system: Human immunodeficiency virus 1; type: functional, cell-based; details: Human immunodeficiency virus 1, A17, MAGI-CCR5, 48 h
[14] = Therapeutic index, ratio of TC50 for human MAGI-CCR5 cells to IC50 for HIV-1 NL4-3 harboring reverse transcriptase K103N mutant infected in MAGI-CCR5 cells
[15] = Therapeutic index, ratio of TC50 for human MAGI-CCR5 cells to IC50 for HIV-1 NL4-3 harboring reverse transcriptase E138A mutant infected in MAGI-CCR5 cells
[16] = (§1) Inhibition of HIV1 NL4-3 reverse transcriptase assessed as reduction in [3H]dTTP incorporation using poly(rA)/oligo(dT) as template/primer after 1 hr by microbeta scintillation counting analysis; parameters: species or system Human immunodeficiency virus 1
[17] = system: Human immunodeficiency virus 1; experiment: as §1

SMILES | CC50 at 48 h [1] [nM] | IC90 [4] [nM] | Activity [6] | IC50 [6] [nM] | IC90 [6] [nM] | TI [7] | IC50 (PBMC) [nM] | IC90 (PBMC) [nM] | CC50 [8] [nM] | TI [9] | remaining at 1 h, 100 µM [10] [%] | remaining at 1 h, 4 µM [11] [%] | TI [12] | IC50 [13] [nM] | IC50 [4] [nM] | other results
Cc1cn([C@H]2C[C@H](N=[N+]=[N-])[C@@H](CO)O2)c(=O)[nH]c1=O [ZIDOVUDINE] | > 1000 | 350 | – | – | – | – | – | – | – | – | – | – | – | – | – | IC50 [2]: 10 nM; IC90 [2]: 210 nM; IC50 [3]: 9 nM; IC90 [3]: 100 nM; IC90 [5]: > 1000 nM
CC1=C(c2nc(-c3ccc(C#N)cc3)cs2)C(c2cc3ccccc3n2C)NC(=O)N1 (stereo not given) | > 100000 | 5000 to 8390 | Dose-dependent effect | 700 | 3700 | 143 | 1100 | 3200 | > 100000 | 91 | 95.6 | 62.9 | >=111 - 192 | > 100000 | 520 to 900 | IC50 [2]: 3840 nM; IC90 [2]: > 100000 nM; IC50 [3]: > 100000 nM; IC90 [3]: > 100000 nM; TI [14]: >26.04; TI [15]: >2.3; IC50 [5]: 43500 nM; IC90 [5]: > 100000 nM
CC1=C(c2nc(-c3ccc(C#N)cc3)cs2)[C@H](c2cccc(O)c2)NC(=O)N1 | – | – | – | – | – | – | 22000 | 77000 | – | >4.5 | – | – | – | – | – | IC50 [16]: > 10000 nM
CC1=C(c2nc(-c3ccc(C#N)cc3)cs2)C(c2ccc(Cl)nc2)NC(=O)N1 (stereo not given) | > 100000 | – | Dose-dependent effect | 480 | 2400 | 208 | 380 | 940 | > 100000 | 263 | 91.7 | 63.4 | – | – | – | –
CC1=C(c2nc(-c3ccc(C#N)cc3)cs2)[C@@H](c2cccc(O)c2)NC(=O)N1 | – | – | – | – | – | – | 110 | 420 | > 100000 | >909 | – | – | – | – | – | IC50 [16]: 600 nM; inhibition [17]: Dose-dependent effect
CC1=C(c2nc(-c3ccc(C#N)cc3)cs2)C(c2ccc(Br)nc2)NC(=O)N1 (stereo not given) | > 100000 | 3200 | Dose-dependent effect | 350 | 1400 | 286 | 210 | 570 | > 100000 | 476 | 98.3 | 67.6 | >200 | > 100000 | 500 | IC90 [13]: > 100000 nM
CC1=C(c2nc(-c3ccc(C#N)cc3)cs2)C(c2ccc(F)nc2)NC(=O)N1 (stereo not given) | > 100000 | 7600 | Dose-dependent effect | 1100 | 5400 | 91 | 590 | 2000 | > 100000 | 170 | 100 | 49.4 | >91 | > 100000 | 1100 | IC90 [13]: > 100000 nM
Cc1ccnc2c1NC(=O)c1cccnc1N2C1CC1 [NEVIRAPINE] | – | 540 to 600 | Dose-dependent effect | 40 | 30 to 420 | – | 40 to 60 | 180 to 190 | – | – | – | – | – | > 10000 | 40 to 70 | IC50 [2]: 30 nM; IC90 [2]: 350 nM; IC50 [3]: > 10000 nM; IC90 [3]: > 10000 nM; IC90 [5]: > 10000 nM
CC1=C(c2nc(-c3ccc(C#N)cc3)cs2)C(c2ccc(C(F)(F)F)nc2)NC(=O)N1 (stereo not given) | > 100000 | 7700 | Dose-dependent effect | 1100 | 7300 | 91 | 1200 | 4600 | > 100000 | 83 | – | – | >116 | > 100000 | 860 | IC90 [13]: > 100000 nM
COc1ccc(C2NC(=O)NC(C)=C2c2nc(-c3ccc(C#N)cc3)cs2)cc1 (stereo not given) | 7000 | 620 | Dose-dependent effect | 80 | 370 | 88 | 120 | 300 | 76600 | 638 | 96 | 63.1 | 110 | 3400 | 50 | IC90 [13]: 24000 nM
CC1=C(c2nc(-c3ccc(C(F)(F)F)cc3)cs2)C(c2cccc(O)c2)NC(=O)N1 (stereo not given) | 40000 | – | Dose-dependent effect | 5200 | 23000 | 7.7 | 5900 | 18000 | 57000 | 9.7 | – | – | – | – | – | –
COc1cccc(C2NC(=O)NC(C)=C2c2nc(-c3ccc(C#N)cc3)cs2)n1 (stereo not given) | > 100000 | – | Dose-dependent effect | 1600 | 14400 | 63 | 1600 | 5900 | > 100000 | 63 | – | – | – | – | – | –
CC1=C(c2nc(-c3ccc(C#N)cc3)cs2)C(c2ccc(Oc3ccccc3)nc2)NC(=O)N1 (stereo not given) | > 100000 | – | Dose-dependent effect | 640 | 2800 | 156 | 1200 | 3400 | 67500 | 56 | – | – | – | – | – | –
CC1=C(c2nc(-c3ccc(C#N)cc3)cs2)C(c2ccc(Oc3ccccc3)cc2)NC(=O)N1 (stereo not given) | > 10000 | – | Dose-dependent effect | 120 | 620 | 83 | 530 | 1800 | > 100000 | 189 | – | – | – | – | – | –
CC1=C(c2nc(-c3ccc(C#N)cc3)cs2)C(c2cccc(O)c2)NC(=O)N1 (stereo not given) | 98000 | – | Dose-dependent effect | 440 | 2100 | 223 | 190 | 660 | 84000 | 442 | 88.5 | 52.4 | – | – | – | –
CC1=C(c2nc(-c3ccc(C#N)cc3)cs2)C(c2ccc(O)cc2)NC(=O)N1 (stereo not given) | > 10000 | 620 | Dose-dependent effect | 40 | 520 | 250 | 40 | 120 | > 100000 | 2500 | 100 | 100 | 765 | 28000 | 60 | IC90 [13]: 95000 nM
CC1=C(c2nc(-c3cccc(C#N)c3)cs2)C(c2cccc(O)c2)NC(=O)N1C (stereo not given) | > 100000 | – | Dose-dependent effect | 55400 | 89200 | 1.8 | 14500 | 59600 | 64200 | 4.4 | – | – | – | – | – | –
COc1ccc(C2NC(=O)NC(C)=C2c2nc(-c3ccc(C#N)cc3)cs2)cn1 (stereo not given) | > 10000 | 1900 | Dose-dependent effect | 100 | 580 | 100 | 120 | 430 | > 100000 | 833 | 100 | 69.4 | >313 | > 100000 | < 320 | IC90 [13]: > 100000 nM
CC1=C(c2nc(-c3cccc(C#N)c3)cs2)C(c2ccc(O)cc2)NC(=O)N1 (stereo not given) | 69600 | – | Dose-dependent effect | 4400 | 40900 | 16 | 3300 | 10200 | 87500 | 27 | – | – | – | – | – | –
CC1=C(c2nc(-c3ccc(Cl)cc3)cs2)C(c2cccc(O)c2)NC(=O)N1 (stereo not given) | 55000 | – | Dose-dependent effect | 1900 | 11000 | 29 | 1300 | 4100 | 65000 | 50 | – | – | – | – | – | –
CC1=C(c2nc(-c3cccc(C#N)c3)cs2)C(c2cccc(O)c2)NC(=O)N1 (stereo not given) | 51800 | – | Dose-dependent effect | 8700 | 38100 | 6 | 5000 | 15100 | 74000 | 15 | – | – | – | – | – | –
CC1=C(c2nc(-c3ccc(C#N)cc3)cs2)C(c2ccc(OCc3ccccc3)cc2)NC(=O)N1 (stereo not given) | > 10000 | – | Dose-dependent effect | 130 | 750 | 77 | 210 | 600 | > 100000 | 476 | – | – | – | – | – | –
